Data on 1 compound can be found in patent US11497713B2, “Combination taxoid nanoemulsion with immunotherapy in cancer” (TargaGenix, Inc., priority 2017, dated 2022).

This experiment deals with colon and prostate cancer cell lines grown as spheroids. The experiment can be described thus: Spheroid assay with CD133high/CD44high colon and prostate cancer cells. It counts as cell-based. As to conditions: cells selected for CD133high/CD44high. An excerpt: The results from experiments using DHA-SBT-1214 in two human pancreatic tumor models (FIGS. 2 and 3) and a proof-of-concept in patient-derived CSC model are described below. The compelling aspects of DHA-SBT-1214 preclinical activity is its effects on CSCs. Highly plastic CSCs are an important new drug target in the treatment of refractory tumors. Through the development of drugs specifically targeting CSCs (or targeting CSCs in addition to tumor cells) a more durable clinical response may be possible. In addition to the previously described cytotoxicity assays in cell cultures, DHA-SBT-1214 was tested in colon and prostate cancer cell lines grown as spheroids from cells selected for being CD133^high/CD44^high, characteristic of stem cells. […] Perhaps more significant was the effect of exposure to relatively low concentrations of DHA-SBT-1214 (100 nM to 1 μM) for 24 hours on the expression of genes associated with “sternness” in several colon and prostate cancer cells lines grown as microspheres (6,7).

Consider `CC/C=C\C/C=C\C/C=C\C/C=C\C/C=C\C/C=C\CCC(=O)O[C@@H](C(=O)O[C@H]1C[C@@]2(O)[C@@H](OC(=O)c3ccccc3)[C@@H]3[C@]4(OC(C)=O)CO[C@@H]4C[C@H](O)[C@@]3(C)C(=O)[C@H](OC(=O)C3CC3)C(=C1C)C2(C)C)[C@H](C=C(C)C)NC(=O)OC(C)(C)C` [DHA-SBT-1214, Docosahexaenoic acid conjugate of SBT-1214], for which the number of spheroids result is reported as “greatly reduced”.
